Patent US20230131334A1, “COMPANION DIAGNOSTIC BIOMARKERS OF EGFR INHIBITOR” (SYNTEKABIO, INC., priority 2020, published 2023)

System: A549 cell line
Assay: WST-1 assay of drug responsiveness to pelitinib in A549 with LEPRE1 overexpression or inhibited expression
Format: cell-based
Details: Homo sapiens
Experimental: The expression level of LEPRE1 was identified by Western blot, and a test (WST-1 assay) of drug responsiveness to pelitinib was carried out. […] It was confirmed that LEPRE1 overexpression had the effect of increasing drug sensitivity to pelitinib. […] It was confirmed that the inhibited LEPRE1 expression had the effect of reducing drug sensitivity to pelitinib.
The loss-of-function effect whereby drug sensitivity to pelitinib decreases was confirmed when LEPRE1 expression was inhibited.

CCOc1cc2ncc(C#N)c(Nc3ccc(F)c(Cl)c3)c2cc1NC(=O)/C=C/CN(C)C [pelitinib, Pelitinib]
IC50 (A549, A549 overexpressing LEPRE1/pcDNA3.1, then treated with pelitinib): 1030 ± 40.6 nM
IC50 (A549, A549 overexpressing pcDNA3.1 (empty vector), then treated with pelitinib): 1670 ± 520 nM
IC50 (A549, A549 transfected with LEPRE1 siRNA (si2293), then treated with pelitinib): 4010 ± 1010 nM
IC50 (A549, A549 transfected with negative control, then treated with pelitinib): 1730 ± 187 nM
